Experimental data reported in patent US20240360146A1, “BRUTON'S TYROSINE KINASE AND MUTANT DEGRADER, COMPOSITION AND APPLICATION THEREOF” (HANGZHOU HEALZEN THERAPEUTICS CO., LTD., priority 2021, published 2024).
pIC50: −log10 of the molar value.

How the values were obtained:
Type in all cases: cell-based
BTK = biological target: T1, BTK (Homo sapiens, UniProt Q06187); test: BTK degradation activity test in Mino cells; details: 16 h incubation, Western blot or Elisa
T1 construct: endogenous in cells; host or cells: Mino cells
T1 sequence (Q06187 whole entry): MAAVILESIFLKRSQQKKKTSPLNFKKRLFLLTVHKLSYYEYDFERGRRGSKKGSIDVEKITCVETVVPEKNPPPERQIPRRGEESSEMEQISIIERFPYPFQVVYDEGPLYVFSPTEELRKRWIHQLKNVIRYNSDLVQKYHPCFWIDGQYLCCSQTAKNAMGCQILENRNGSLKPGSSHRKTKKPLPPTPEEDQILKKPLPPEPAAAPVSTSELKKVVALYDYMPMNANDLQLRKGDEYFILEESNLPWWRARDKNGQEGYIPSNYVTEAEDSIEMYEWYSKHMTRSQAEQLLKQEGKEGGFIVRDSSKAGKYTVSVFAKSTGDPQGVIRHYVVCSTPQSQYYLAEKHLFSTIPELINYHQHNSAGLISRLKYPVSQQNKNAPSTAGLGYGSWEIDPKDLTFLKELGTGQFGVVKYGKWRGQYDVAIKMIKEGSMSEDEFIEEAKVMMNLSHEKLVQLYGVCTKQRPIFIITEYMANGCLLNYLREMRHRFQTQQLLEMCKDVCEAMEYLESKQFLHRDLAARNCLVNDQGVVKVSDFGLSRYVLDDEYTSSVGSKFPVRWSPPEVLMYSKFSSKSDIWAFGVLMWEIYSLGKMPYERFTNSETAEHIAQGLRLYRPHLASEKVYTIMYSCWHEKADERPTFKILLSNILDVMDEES
How it was run: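 Mino cells treated with a concentration series of compound for 16 h, then lysed; total protein by BCA. BTK quantified by Western blot or ELISA, degradation rate calculated against blank control, and DC50 fitted from the degradation curve.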

OCI-LY10 cells = test: Inhibitory activity on OCI-LY10 cell proliferation (MTS); details: Homo sapiens, 72 h
Experimental: (§1) The anti-tumor efficacy of the compounds was tested by measuring their inhibitory effects on OCI-LY10 and Mino cell proliferation. OCI-LY10 and Mino cells were cultured in RPMI-1640 medium containing 10% fetal calf serum. OCI-LY10 and Mino cells were digested, inoculated in a 96-well plate at a cell concentration of 10000 cells/well, and incubated overnight at 37° C., 5% CO2. Compounds of different concentrations (1000 nM, 4-fold dilution, 8 points) were added to the 96-well plate and incubated for 72 h (LY10) or 168 h (Mino) at 37° C. and 5% CO2, and then 20 uL of MTS was added to each well. After incubation for 2 h, 25 μl of 10% SDS was added to each well to terminate the reaction. The absorbance at 490 nm and 650 nm were measured with a microplate reader. IC50 was calculated using GraphPad Prism 5.0.

Mino cells = test: Inhibitory activity on Mino cell proliferation (MTS); details: Homo sapiens, 168 h incubation
Experimental: as §1

DC50 (BTK) [nM] | pIC50 (OCI-LY10 cells) | SMILES | pIC50 (Mino cells)
< 1 | – | CN1CCN([C@@H]2CCCN(c3nnc(C(N)=O)c(Nc4ccc(N5CCN(C[C@@H]6CCN(c7ccc(N8CCC(=O)NC8=O)cc7)C6)CC5)c(F)c4)n3)C2)C1=O [Compound 152, 5-((4-(4-(((S)-1-(4-(2,4-dioxotetrahydropyrimidin-1(2H)-yl)phenyl)pyrrolidin-3-yl)methyl)piperazin-1-yl)-3-fluorophenyl)amino)-3-((R)-3-(3-methyl-2-oxoimidazolin-1-yl)piperidin-1-yl)-1,2,4-triazin-6-carboxamide] | 8.55
< 1 | – | CN1CCN([C@@H]2CCCN(c3nnc(C(N)=O)c(Nc4ccc(N5CCN(CC6CCN(c7ccc(C(=O)NC8CCC(=O)NC8=O)c(F)c7F)CC6)CC5)c(F)c4)n3)C2)C1=O (stereo partly drawn) [Compound 182, 5-((4-(4-((1-(4-((2,6-dioxopiperidin-3-yl)carbamoyl)-2,3-difluorophenyl)piperidin-4-yl)methyl)piperazin-1-yl)-3-fluorophenyl)amino)-3-((R)-3-(3-methyl-2-oxoimidazolidin-1-yl)piperidin-1-yl)-1,2,4-triazin-6-carboxamide] | 8.50
< 1 | – | CN1CCN([C@@H]2CCCN(c3nnc(C(N)=O)c(Nc4ccc(N5CCN(CC6CCN(c7ccc(C(=O)NC8CCC(=O)NC8=O)c8c7OCCO8)CC6)CC5)c(F)c4)n3)C2)C1=O (stereo partly drawn) [Compound 183, 5-((4-(4-((1-(8-((2,6-dioxopiperidin-3-yl)carbamoyl)-2,3-dihydrobenzo[b][1,4]dioxan-5-yl)piperidin-4-yl)methyl)piperazin-1-yl)-3-fluorophenyl)amino)-3-((R)-3-(3-methyl-2-oxoimidazolidin-1-yl)piperidin-1-yl)-1,2,4-triazin-6-carboxamide] | 8.31
< 1 | – | CN1CCN([C@@H]2CCCN(c3nnc(C(N)=O)c(Nc4ccc(N5CCN(CC6CCN(c7ccc(N8CCC(=O)NC8=O)cc7F)CC6)CC5)c(F)c4)n3)C2)C1=O [Compound 186, (R)-5-((4-(4-((1-(4-(2,4-dioxotetrahydropyrimidin-1(2H)-yl)-2-fluorophenyl)piperidin-4-yl)methyl)piperazin-1-yl)-3-fluorophenyl)amino)-3-(3-(3-methyl-2-oxoimidazolidin-1-yl)piperidin-1-yl)-1,2,4-triazin-6-carboxamide] | 8.65
< 1 | – | CN1CCN([C@@H]2CCCN(c3nnc(C(N)=O)c(Nc4ccc(N5CCN(CC6CCN(c7ccc(N8CCC(=O)NC8=O)c8ocnc78)CC6)CC5)c(F)c4)n3)C2)C1=O [Compound 191, (R)-5-((4-(4-((1-(7-(2,4-dioxotetrahydropyrimidin-1(2H)-yl)benzo[d]oxazol-4-yl)piperidin-4-yl)methyl)piperazin-1-yl)-3-fluorophenyl)amino)-3-(3-(3-methyl-2-oxoimidazolidin-1-yl)piperidin-1-yl)-1,2,4-triazin-6-carboxamide] | 8.07
< 1 | 9.64 | Cc1cc(N2CCC(CN3CCN(c4ccc(Nc5nc(N6CCC[C@@H](N7CCN(C)C7=O)C6)nnc5C(N)=O)cc4F)CC3)CC2)ccc1NC1CCC(=O)NC1=O (stereo partly drawn) [Compound 207, 5-((4-(4-((1-(4-((2,6-dioxopiperidin-3-yl)amino)-3-methylphenyl)piperidin-4-yl)methyl)piperazin-1-yl)-3-fluorophenyl)amino)-3-((R)-3-(3-methyl-2-oxoimidazolidin-1-yl)piperidin-1-yl)-1,2,4-triazin-6-carboxamide] | –
< 1 | – | CN1CCN([C@@H]2CCCN(c3nnc(C(N)=O)c(Nc4ccc(N5CCN(CC6CCN(c7ccc(NC8CCC(=O)NC8=O)c8c7OCO8)CC6)CC5)c(F)c4)n3)C2)C1=O (stereo partly drawn) [Compound 209, 5-((4-(4-((1-(7-((2,6-dioxopiperidin-3-yl)amino)benzo[d][1,3]dioxacyclopent-4-yl)piperidin-4-yl)methyl)piperazin-1-yl)-3-fluorophenyl)amino)-3-((R)-3-(3-methyl-2-oxoimidazolidin-1-yl)piperidin-1-yl)-1,2,4-triazin-6-carboxamide] | 8.47

Further lines, the compound ahead of its results:

SMILES | DC50 (BTK) [nM] | pIC50 (OCI-LY10 cells) | pIC50 (Mino cells)
CN1CCN([C@@H]2CCCN(c3nnc(C(N)=O)c(Nc4ccc(N5CCC(CN6CCN(c7cc8c(cc7F)C(=O)N(C7CCC(=O)NC7=O)C8=O)CC6)CC5)cc4)n3)C2)C1=O (stereo partly drawn) [Compound 125, 5-((4-(4-((4-(2-(2,6-dioxopiperidin-3-yl)-6-fluoro-1,3-dioxoisoindolin-5-yl)piperazin-1-yl)methyl)piperidin-1-yl)phenyl)amino)-3-((R)-3-(3-methyl-2-oxoimidazolin-1-yl)piperidin-1-yl)-1,2,4-triazin-6-carboxamide] | < 1 | 8.74 | –
CN1CCN([C@@H]2CCCN(c3nnc(C(N)=O)c(Nc4ccc(N5CCN(CC6CCN(c7ccc(N8CCC(=O)NC8=O)c(F)c7F)CC6)CC5)c(F)c4)n3)C2)C1=O [Compound 185, (R)-5-((4-(4-((1-(4-(2,4-dioxotetrahydropyrimidin-1(2H)-yl)-2,3-difluorophenyl)piperidin-4-yl)methyl)piperazin-1-yl)-3-fluorophenyl)amino)-3-(3-(3-methyl-2-oxoimidazolidin-1-yl)piperidin-1-yl)-1,2,4-triazin-6-carboxamide] | < 1 | 8.87 | –
CN1CCN([C@@H]2CCCN(c3nnc(C(N)=O)c(Nc4ccc(N5CCN(CC6CCN(c7ccc(N8CCC(=O)NC8=O)c(C(F)(F)F)c7)CC6)CC5)c(F)c4)n3)C2)C1=O [Compound 187, (R)-5-((4-(4-((1-(4-(2,4-dioxotetrahydropyrimidin-1(2H)-yl)-3-(trifluoromethyl)phenyl)piperidin-4-yl)methyl)piperazin-1-yl)-3-fluorophenyl)amino)-3-(3-(3-methyl-2-oxoimidazolidin-1-yl)piperidin-1-yl)-1,2,4-triazin-6-carboxamide] | < 1 | – | 8.68
CN1CCN([C@@H]2CCCN(c3nnc(C(N)=O)c(Nc4ccc(N5CCN(CC6CCN(c7ccc(N8CCC(=O)NC8=O)c(C(F)F)c7)CC6)CC5)c(F)c4)n3)C2)C1=O [Compound 188, (R)-5-((4-(4-((1-(3-(difluoromethyl)-4-(2,4-dioxotetrahydropyrimidin-1(2H)-yl)phenyl)piperidin-4-yl)methyl)piperazin-1-yl)-3-fluorophenyl)amino)-3-(3-(3-methyl-2-oxoimidazolidin-1-yl)piperidin-1-yl)-1,2,4-triazin-6-carboxamide] | < 1 | – | 8.26
CC(C)c1cc(N2CCC(CN3CCN(c4ccc(Nc5nc(N6CCC[C@@H](N7CCN(C)C7=O)C6)nnc5C(N)=O)cc4F)CC3)CC2)ccc1N1CCC(=O)NC1=O [Compound 189, (R)-5-((4-(4-((1-(4-(2,4-dioxotetrahydropyrimidin-1(2H)-yl)-3-isopropylphenyl)piperidin-4-yl)methyl)piperazin-1-yl)-3-fluorophenyl)amino)-3-(3-(3-methyl-2-oxoimidazolidin-1-yl)piperidin-1-yl)-1,2,4-triazin-6-carboxamide] | < 1 | – | 8.26
CN1CCN([C@@H]2CCCN(c3nnc(C(N)=O)c(Nc4ccc(N5CCN(CC6CCN(c7ccc(N8CCC(=O)NC8=O)c8[nH]cnc78)CC6)CC5)c(F)c4)n3)C2)C1=O [Compound 192, (R)-5-((4-(4-((1-(7-(2,4-dioxotetrahydropyrimidin-1(2H)-yl)-1H-benzo[d]imidazol-4-yl)piperidin-4-yl)methyl)piperazin-1-yl)-3-fluorophenyl)amino)-3-(3-(3-methyl-2-oxoimidazolidin-1-yl)piperidin-1-yl)-1,2,4-triazin-6-carboxamide] | < 1 | – | 8.62
CN1CCN([C@@H]2CCCN(c3nnc(C(N)=O)c(Nc4ccc(N5CCN(CC6CCN(c7ccc(NC8CCC(=O)NC8=O)c8ocnc78)CC6)CC5)c(F)c4)n3)C2)C1=O (stereo partly drawn) [Compound 210, 5-((4-(4-((1-(7-((2,6-dioxopiperidin-3-yl)amino)benzo[d]oxazol-4-yl)piperidin-4-yl)methyl)piperazin-1-yl)-3-fluorophenyl)amino)-3-((R)3-(3-methyl-2-oxoimidazolidin-1-yl)piperidin-1-yl)-1,2,4-triazin-6-carboxamide] | < 1 | – | 8.63
CN1CCN([C@@H]2CCCN(c3nnc(C(N)=O)c(Nc4ccc(N5CCN(CC6CCN(c7ccc8c(C9CCC(=O)NC9=O)nn(C)c8c7)CC6)CC5)c(F)c4)n3)C2)C1=O (stereo partly drawn) [Compound 213, 5-((4-(4-((1-(3-(2,6-dioxopiperidin-3-yl)-1-methyl-1H-indazol-6-yl)piperidin-4-yl)methyl)piperazin-1-yl)-3-fluorophenyl)amino)-3-((R)-3-(3-methyl-2-oxoimidazolidin-1-yl)piperidin-1-yl)-1,2,4-triazin-6-carboxamide] | < 1 | – | 8.12
CN1CCN([C@@H]2CCCN(c3nnc(C(N)=O)c(Nc4ccc(N5CCN(CC6CCN(c7ccc8c(c7)n(C)c(=O)n8C7CCC(=O)NC7=O)CC6)CC5)c(F)c4)n3)C2)C1=O (stereo partly drawn) [Compound 219, 5-((4-(4-((1-(1-(2,6-dioxopiperidin-3-yl)-3-methyl-2-oxo-2,3-dihydro-H-benzo[d]imidazol-5-yl)piperidin-4-yl)methyl)piperazin-1-yl)-3-fluorophenyl)amino)-3-((R)-3-(3-methyl-2-oxoimidazolidin-1-yl)piperidin-1-yl)-1,2,4-triazin-6-carboxamide] | < 1 | – | 8.56
